Test results as given in publication PMC7005530, “A selective androgen receptor modulator SARM‐2f activates androgen receptor, increases lean body mass, and suppresses blood lipid levels in cynomolgus monkeys” (Pharmacology Research & Perspectives, 2020).
Like-named read-outs stand apart in the source and are kept apart here.

Key:
[1] = Plasma lipid levels after 4-week treatment; assay type: in vivo, cynomolgus monkey; conditions: after 4 wks, SARM‐2f 1, 3, 10 mg/kg daily p.o., vs vehicle
Protocol: The monkeys were divided into five groups by weight randomization (MiTOX system ver2.0, Mitsui E & S Systems Research Inc) on the last day of the habituation period. SARM‐2f was orally administered at daily doses of 1, 3, or 10 mg/kg for 4 weeks between 9:00 and 11:00 hours, using 0.5% w/v methylcellulose as the vehicle. TE was injected intramuscularly on Day 0 and Day 13; the dosing start was set at Day 0 at a dose of 2 mg/kg using sesame oil as the vehicle. The route of administration and dose of TE was selected according to the route and dose mentioned in the clinical indications. BW was measured every week before dosing (between 8:30 and 9:00 hours), and LBM was measured every 2 weeks after dosing and before feeding (between 11:30 and 14:30 hours) using an X‐ray bone density measuring device (Discovery, HOLOGIC USA). Blood collection for lipid profiles was conducted on the day after the completion of the four‐week multiple administration of SARM‐2f or TE. Plasma levels of total cholesterol (T‐chol), HDL‐c, low‐density lipoprotein cholesterol (LDL‐c), triglyceride (TG), alanine aminotransferase (ALT), and […] (AST) were measured by an automatic JCA‐BM8 analysis system (JEOL Ltd.). Plasma lipoprotein (a) (Lp (a)) levels were measured using a multiplate absorbance measuring system (Multiscan Ascent, Thermo Fisher Scientific KK). […]

[2] = Pharmacokinetic study, oral single and 14-day dosing; assay type: in vivo, cynomolgus monkey
Protocol: Monkeys were orally treated with SARM‐2f (10 mg/kg) as a single dose or daily administration for 14 consecutive days; blood was collected from the femoral vein at 0.5, 1, 2, 4, 8, and 24 hours after the single dose and 14 doses (n = 2 each sex). The blood samples were centrifuged (4°C, 12 000 g, 1 minutes) to obtain plasma. Plasma concentrations of SARM‐2f were measured by liquid chromatography/tandem mass spectrometry.

[3] = Effects on body weight and lean body mass, 4-week administration; assay type: in vivo, cynomolgus monkey
Protocol: The monkeys were divided into five groups by weight randomization (MiTOX system ver2.0, Mitsui E & S Systems Research Inc) on the last day of the habituation period. SARM‐2f was orally administered at daily doses of 1, 3, or 10 mg/kg for 4 weeks between 9:00 and 11:00 hours, using 0.5% w/v methylcellulose as the vehicle. TE was injected intramuscularly on Day 0 and Day 13; the dosing start was set at Day 0 at a dose of 2 mg/kg using sesame oil as the vehicle. The route of administration and dose of TE was selected according to the route and dose mentioned in the clinical indications. BW was measured every week before dosing (between 8:30 and 9:00 hours), and LBM was measured every 2 weeks after dosing and before feeding (between 11:30 and 14:30 hours) using an X‐ray bone density measuring device (Discovery, HOLOGIC USA). Blood collection for lipid profiles was conducted on the day after the completion of the four‐week multiple administration of SARM‐2f or TE. Plasma levels of total cholesterol (T‐chol), HDL‐c, low‐density lipoprotein cholesterol (LDL‐c), triglyceride (TG), alanine aminotransferase (ALT), and […] (AST) were measured by an automatic JCA‐BM8 analysis system (JEOL Ltd.). Plasma lipoprotein (a) (Lp (a)) levels were measured using a multiplate absorbance measuring system (Multiscan Ascent, Thermo Fisher Scientific KK).
In the reporter assays, EC50 was calculated using Graph Pad Prism version 6. The effects of SARM‐2f or TE on BW and LBM were analyzed by t test, with Bonferroni correction for repeated measurements.

[4] = parameters: method as in PMID 28454849; conditions: monkeys, cited from earlier work
[5] = 10 mg/kg p.o., 1st (single) dose, total N = 4
[6] = 10 mg/kg p.o., 1st dose, female N = 2
[7] = 10 mg/kg p.o., 1st dose, male N = 2
[8] = 10 mg/kg/day p.o., 14th dose, female N = 2
[9] = 10 mg/kg/day p.o., 14th dose, male N = 2
[10] = 10 mg/kg/day p.o., 14th dose, total N = 4

With `CC[C@H]1[C@@H](O)CC(=O)N1c1ccc(C#N)c(C(F)(F)F)c1` [SARM‐2f, 4′‐[(2S,3S)‐2‐Ethyl‐3‐hydroxy‐5‐oxopyrrolidin‐1‐yl]‐2′‐(trifluoromethyl) benzonitrile] the “Blood level of HDL‐c” value ([1]; TE 2 mg/kg every 2 wks) was “only reduced in animals treated with 3 or 10 mg/kg”, the “Blood level of LDL‐c” value ([1]; TE 2 mg/kg every 2 wks) was “lower” and the “Blood level of TG” value ([1]; TE 2 mg/kg every 2 wks) was “lower”. The “Blood level of T‐chol” value ([1]; TE 2 mg/kg every 2 wks) was “lower”, the “Lp (a) protein level” value ([1]; TE 2 mg/kg every 2 wks) was “showed a tendency to be decreased” and the “HDL‐c/LDL‐c ratio” value [1] was “did not cause any significant change”. For the same compound, the “AUC 0‐24 h” value [2, 5] was 8152 ± 945 ng·h/mL, the C max [2, 5] was 3011 ± 718 ng/mL and the T max [2, 5] was 1.0 ± 0.0 h. The “AUC 0‐24 h” value [2, 6] was 8116 ng·h/mL, the C max [2, 6] was 3341 ng/mL and the T max [2, 6] was 1.0 h. The “AUC 0‐24 h” value [2, 7] was 8188 ng·h/mL, the C max [2, 7] was 2681 ng/mL and the T max [2, 7] was 1.0 h. For the same compound, the “AUC 0‐24 h” value [2, 8] was 6043 ng·h/mL, the C max [2, 8] was 2297 ng/mL and the T max [2, 8] was 1 h. The “AUC 0‐24 h” value [2, 9] was 8620 ng·h/mL, the C max [2, 9] was 3176 ng/mL and the T max [2, 9] was 0.8 h. For the same compound, the “AUC 0‐24 h” value [2, 10] was 7331 ± 1618 ng·h/mL, the C max [2, 10] was 2736 ± 525 ng/mL and the T max [2, 10] was 0.9 ± 0.3 h. The “BW increase from pre‐dosing level” value ([3]; 1 mg/kg daily p.o., Day 13, male monkeys n = 3) was 6.2%, the “LBM increase from pre‐dosing level” value ([3]; 1 mg/kg daily p.o., Day 13, n = 3) was 4.3% and the “BW increase from pre‐dosing level” value ([3]; 1 mg/kg daily p.o., Day 27, male monkeys n = 3) was 7.7%. The “LBM increase from pre‐dosing level” value ([3]; 1 mg/kg daily p.o., Day 28, n = 3) was 6.1%, the “BW increase from pre‐dosing level” value ([3]; 3 mg/kg daily p.o., Day 13, male monkeys n = 3) was 6.0% and the “LBM increase from pre‐dosing level” value ([3]; 3 mg/kg daily p.o., Day 13, n = 3) was 4.0%. For the same compound, the “BW increase from pre‐dosing level” value ([3]; 3 mg/kg daily p.o., Day 27, male monkeys n = 3) was 3.3%, the “LBM increase from pre‐dosing level” value ([3]; 3 mg/kg daily p.o., Day 28, n = 3) was 3.1% and the “effective dose to increase BW by approximately 10%” value ([3]; monkeys, daily p.o., 4 weeks) was 10 mg/kg. The Vdss ([4]; intravenous administration at 0.1 mg/kg) was 1.409 L/kg, the “AUC 0‐24 h” value ([4]; single oral administration at 1 mg/kg) was 557.8 ng·h/mL and the “MRT (Mean Residence Time)” value [4] was 5.21 h.
